Experimental findings from patent US9328369B2, “Process for production of useful substance, and surfactant for use in the process” (priority 2009, dated 2016) are described below.

The test system of the test is Escherichia coli(ε). As to the kind of experiment: Production by secretion in microbial culture system, protease expressing strain (Table 5). It is filed as cell-based. The settings on record: Example 12, surfactant 1 wt %. The text has this:
A subtilisin Carlsberg gene of a Bacillus licheniformis was amplified by the PCR method using primers 7 and 8 (Table 4). After being treated with restriction enzymes NcoI and BamHI, a PCR amplified fragment was bound to an NcoI restriction enzyme site and a BamHI restriction enzyme site of a pET-22b plasmid (product of Novagen). Then, the plasmid was transformed into a BL21 (DE3) Escherichia coli strain (product of Novagen) to form Escherichia coli (ε) that expresses protease.
Overnight cultures (1 ml) of Escherichia coli (δ) obtained in Production Example 4 and Escherichia coli (ε) obtained in Production Example 5 were respectively prepared as Comparative Example 2 and Comparative Example 4. An amount of 0.5 ml of each was inoculated in 5 ml of an LB culture solution (containing 100 mg/L of ampicillin) and was shake-cultured at 30° C. for 3 hours. In this manner, pre-culture solutions were prepared. […] The whole protein in the culture solution was analyzed by SDS-PAGE. Based on the obtained amount of the protein band, the recombinant protein was quantified.
Performance of this processes for several times clarified the proportional relationship between the turbidity of the culture solution and the dried cell density. Therefore, the dried cell density was obtained from the measured turbidity in each of Comparative Examples 2 to 4 and Examples 2 to 14. […]

With “Cured palm oil fatty acid amidopropyl dimethyl aminoacetate betaine [A-6]”, the Turbidity was determined as 95. Further, the “Dried cell density” value (obtained from turbidity) is given as 26.6 g/L. The “Quantitative value of produced recombinant protein” value (supernatant, SDS-PAGE) is on record as 0.37 g/L.
